Source: patent publication US20160066610A1, “METHODS FOR ENHANCING AGED MUSCLE REGENERATION” (ABBOTT LABORATORIES, priority 2013, published 2016)
Several values for one entry are separate records, joined by “and”; a condition that tells them apart may be missing. Identical values can stand only once.

Test system: FGF2
Assay: Intramuscular FGF2 in gastrocnemius muscle lysates after 8 weeks of dietary supplementation, aged SD rat model of sarcopenia
Assay type: in vivo, Sprague Dawley (SD) rat
Conditions: for level of intramuscular FGF2, individual rat / level of intramuscular FGF2, AVE: aged (21 month) SD rats, gastrocnemius lysate, end of 8 week study, EGCg 50 mg/kg bw; for level of intramuscular FGF2, individual rat: Ca-HMB 340 mg/kg bw in AIN-93M diet, one value per rat (Rat 1-10); for % Change from Control (intramuscular FGF2): group average vs control diet AIN-93M, 8 weeks; for level of intramuscular FGF2, AVE: group average, Ca-HMB 340 mg/kg bw
Method: Example 3 illustrates the effect of 8 weeks of dietary supplementation in the aged Sprague Dawley (SD) rat model of sarcopenia. More particularly, the level of intramuscular FGF2 in gastrocnemius muscle lysates of aged SD rats (21 month) were analyzed and compared. The four experimental groups included:
1) control group: fed AIN-93M (purified diet);
2) EGCg group: fed AIN-93M+EGCg (Teavigo®-DSM-50 mg/kg bw);
3) HMB group: fed AIN-93M+Ca-HMB (340 mg/kg bw); and
4) HMB+EGCg group: fed AIN-93M+Ca-HMB (340 mg/kg bw)+EGCg (Teavigo®-50 mg/kg bw).
A total of 40 rats were divided equally among the four groups. Whole gastrocnemius muscles were collected from euthanized rats and flash frozen in liquid nitrogen. Approximately 200 mg tissue was obtained from each muscle by mechanical biopsy punch. Specimens were then pulverized on liquid nitrogen and transferred to 15 mL conical tube and weighed. A mild, detergent free lysis buffer (9×) was added to the dried specimen in the conical tube. 9× Lysis buffer (50 mM Tris.HCl, 2 mM EDTA, pH 7.4/NaOH) was supplemented with a mammalian protease inhibitor cocktail (Sigma) at a 1:200 dilution and stored on ice. The specimens were then vortexed again for 10 sec. and transferred to a 1.5 mL tube. Lysates were centrifuged/clarified for 5 min. at 11000 rpm at 4° C. in a standard table-top Eppendorf centrifuge. Supernatant (1 mL) was aliquotted to a 2 mL cryotube and stored at −80° C. Lystates were analyzed by Myriad Rules Based Medicine (Austin, Tex.) on the RodentMAP® v. 2.0 Antigens and Rat METABOLIC® multi-analyte profiling platforms.

Row | Molecule | level of intramuscular FGF2, individual rat | % Change from Control (intramuscular FGF2) | level of intramuscular FGF2, AVE
1 | epigallocatechin-3-gallate [EGCg] | 3.7 ng/mL of lysate (2×) and 16.0 ng/mL of lysate and 15.0 ng/mL of lysate and 9.9 ng/mL of lysate and 5.5 ng/mL of lysate and 3.1 ng/mL of lysate (3×) and 7.8 ng/mL of lysate | −2.9% | 7.09 ng/mL of lysate
2 | CC(C)(O)CC(=O)O [HMB, beta-hydroxy-beta-methylbutyrate] | 15.0 ng/mL of lysate and 21.0 ng/mL of lysate and 6.1 ng/mL of lysate and 3.1 ng/mL of lysate and 4.3 ng/mL of lysate and 11.0 ng/mL of lysate and 4.0 ng/mL of lysate and 4.9 ng/mL of lysate | 18.8% | 8.68 ng/mL of lysate
